Results taken from patent US6680335B2, “Methods of modulating protein tyrosine kinase function with substituted indolinone compounds” (Sugen, Inc., priority 1998, dated 2004).

Target: T1, FLK-1 receptor (Mus musculus, UniProt P35918)
T1 construct: expressed in transfected cells; host or cells: NIH3T3 C7#3 cells
Test: ELISA assay measuring the kinase activity of the FLK-1 receptor in cells engineered to express FLK-1
Assay type: cell-based
Details: FLK-1 expressing NIH3T3 C7#3 cells, VEGF stimulated; cells without % or + sign
Procedure: An ELISA assay was conducted to measure the kinase activity of the FLK-1 receptor and more specifically, the inhibition or activation of TK activity on the FLK-1 receptor. Specifically, the following assay was conducted to measure kinase activity of the FLK-1 receptor in cells genetically engineered to express FLK-1.
(11) NIH3T3 C7#3 Cells (FLK-1 expressing cells);
The following protocol was used for conducting the assay:
1. Coat Corning 96-well elisa plates with 1.0 μg per well Cappel Anti-rabbit IgG antibody in 0.1 M Na2CO3 pH 9.6. Bring final volume to 150 μL per well. Coat plates overnight at 4° C. Plates can be kept up to two weeks when stored at 4° C.
2. Grow cells in Growth media (DMEM, supplemental with 2.0 mM L-Glutamine, 10% FBS) in suitable culture dishes until confluent at 37° C., 5% CO2.
3. Harvest cells by trypsinization and seed in Corning 25850 polystyrene 96-well roundbottom cell plates, 25.000 cells/well in 200 μL of growth media.
4. Grow cells at least one day at 37° C., 5% CO2.
5. Wash cells with D-PBS 1×.
6. Add 200 μL/well of starvation media (DMEM, 2.0 mM 1-Glutamine, 0.1% FBS). Incubate overnight at 37° C., 5% CO2.
7. Dilute Compounds 1:20 in polypropylene 96 well plates using starvation media. Dilute dimethylsulfoxide 1:20 for use in control wells.
8. Remove starvation media from 96 well cell culture plates and add 162 μL of fresh starvation media to each well.
9. Add 18 μL of 1:20 diluted Compound dilution (from step 7) to each well plus the 1:20 dimethylsulfoxide dilution to the control wells (+/−VEGF), for a final dilution of 1:200 after cell stimulation. Final dimethylsulfoxide is 0.5%. Incubate the plate at 37° C., 5% CO2 for two hours.
10. Remove unbound antibody from ELISA plates by inverting plate to remove liquid. Wash 3 times with TBSW+0.5% ethanolamine, pH 7.0. Pat the plate on a paper towel to remove excess liquid and bubbles.
11. Block plates with TBSW+0.5% Ethanolamine, pH 7.0, 150 μL per well. Incubate plate thirty minutes while shaking on a microliter plate shaker.
12. Wash plate 3 times as described in step 10.
13. […] Bring final volume to 150 μL/well with TBSW+0.5% ethanolamine pH 7.0. Incubate plate for thirty minutes while shaking.
14. Add 180 μL starvation medium to the cells and stimulate cells with 20 μL/well 10.0 mM sodium ortho vanadate and 500 ng/mL VEGF (resulting in a final concentration of 1.0 mM sodium ortho vanadate and 50 ng/mL VEGF per well) for eight minutes at 37° C., 5% CO2. Negative control wells receive only starvation medium.
15. After eight minutes, media should be removed from the cells and washed one time with 200 μL/well PBS.
16. Lyse cells in 150 μL/well HNTG while shaking at room temperature for five minutes. HNTG formulation includes sodium ortho vanadate, sodium pyro phosphate and EDTA.
17. Wash ELISA plate three times as described in step 10.
18. Transfer cell lysates from the cell plate to ELISA plate and incubate while shaking for two hours. To transfer cell lysate pipette up and down while scrapping the wells.
19. Wash plate three times as described in step 10.
20. Incubate ELISA plate with 0.02 μg/well UB40 in TBSW+05% ethanolamine. Bring final volume to 150 μL/well. Incubate while shaking for 30 minutes.
21. Wash plate three times as described in step 10.
22. Incubate ELISA plate with 1:10,000 diluted EIA grade goat anti-mouse IgG conjugated horseradish peroxidase in TBSW+0.5% ethanolamine, pH 7.0. Bring final volume to 150 μL/well. Incubate while shaking for thirty minutes.
23. Wash plate as described in step 10.
24. Add 100 μL of ABTS/H2O2 solution to well. Incubate ten minutes while shaking.
25. Add 100 μL of 0.2 M HCl for 0.1 M HCl final to stop the color development reaction. Shake 1 minute at room temperature. Remove bubbles with slow stream of air and read the ELISA plate in an ELISA plate reader at 410 nm.
The IC50 values were measured for several of the compounds of the invention.

T1 sequence (P35918 20-1345): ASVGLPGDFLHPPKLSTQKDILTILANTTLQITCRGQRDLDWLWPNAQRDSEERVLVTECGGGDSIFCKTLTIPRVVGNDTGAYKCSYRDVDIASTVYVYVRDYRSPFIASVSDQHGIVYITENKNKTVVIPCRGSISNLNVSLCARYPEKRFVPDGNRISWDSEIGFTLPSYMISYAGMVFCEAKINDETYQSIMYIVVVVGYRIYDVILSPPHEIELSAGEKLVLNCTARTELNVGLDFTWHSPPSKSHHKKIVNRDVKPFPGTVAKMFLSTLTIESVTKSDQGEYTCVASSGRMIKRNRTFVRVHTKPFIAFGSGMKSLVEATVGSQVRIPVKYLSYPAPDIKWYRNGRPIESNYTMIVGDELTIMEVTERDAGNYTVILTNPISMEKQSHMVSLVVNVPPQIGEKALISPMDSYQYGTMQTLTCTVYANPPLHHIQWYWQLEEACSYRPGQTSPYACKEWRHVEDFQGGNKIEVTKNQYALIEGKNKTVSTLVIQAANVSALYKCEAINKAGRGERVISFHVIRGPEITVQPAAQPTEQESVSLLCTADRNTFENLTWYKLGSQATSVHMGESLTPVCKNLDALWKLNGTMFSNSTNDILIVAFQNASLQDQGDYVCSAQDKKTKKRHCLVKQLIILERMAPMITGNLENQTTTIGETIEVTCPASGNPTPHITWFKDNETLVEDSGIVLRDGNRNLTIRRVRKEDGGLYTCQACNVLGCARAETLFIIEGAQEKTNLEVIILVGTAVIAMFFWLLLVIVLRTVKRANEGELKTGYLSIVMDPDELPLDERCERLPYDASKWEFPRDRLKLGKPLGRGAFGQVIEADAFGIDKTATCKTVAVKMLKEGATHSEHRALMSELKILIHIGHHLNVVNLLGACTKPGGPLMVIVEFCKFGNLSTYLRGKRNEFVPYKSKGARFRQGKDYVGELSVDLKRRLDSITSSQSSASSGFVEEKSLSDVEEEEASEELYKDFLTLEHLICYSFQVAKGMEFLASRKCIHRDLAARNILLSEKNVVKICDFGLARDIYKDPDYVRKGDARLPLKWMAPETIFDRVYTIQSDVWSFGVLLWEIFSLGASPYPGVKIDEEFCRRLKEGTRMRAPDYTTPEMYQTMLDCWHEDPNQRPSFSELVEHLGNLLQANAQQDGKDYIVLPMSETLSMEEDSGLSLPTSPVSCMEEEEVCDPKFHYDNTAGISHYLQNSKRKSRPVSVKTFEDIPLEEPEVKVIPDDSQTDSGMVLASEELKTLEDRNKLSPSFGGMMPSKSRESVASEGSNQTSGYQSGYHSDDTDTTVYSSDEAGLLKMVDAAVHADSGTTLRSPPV

SMILES | IC50 [nM]
O=C1Nc2ccc(C(=O)O)cc2/C1=C/c1cc2ccccc2[nH]1 [IN-010, 3-(1H-Indol-2-ylmethylene)-2-oxo-2,3-dihydro-1H-indole-5-carboxylic acid] | 2100
Nc1ccc2c(c1)/C(=C/c1cc3ccccc3[nH]1)C(=O)N2 [IN-009, 5-Amino-3-(1H-indol-2-ylmethylene)-1,3-dihydro-indol-2-one] | 1530
Cc1c(/C=C2\C(=O)Nc3ccc(C(=O)O)cc32)[nH]c2ccccc12 [IN-005, 3-(3-Methyl-1H-indol-2-ylmethylene)-2-oxo-2,3-dihydro-1H-indole-5-carboxylic acid] | 4200

Same assay, conditions: FLK-1 expressing NIH3T3 C7#3 cells, VEGF stimulated; compound at 100 μM

SMILES | inhibition at 100 µM [%]
CC(=O)c1ccc2c(c1)C(=Cc1[nH]c3ccccc3c1C)C(=O)N2 [IN-006, 5-Acetyl-3-(3-methyl-1H-indol-2-ylmethylene)-1,3-dihydro-indol-2-one] | 10.4
CC(=O)c1ccc2c(c1)C(=Cc1cc3ccccc3[nH]1)C(=O)N2 [IN-007, 5-Acetyl-3-(1H-indol-2-ylmethylene)-1,3-dihydro-indol-2-one] | 30
Cc1cccc2c1/C(=C/c1[nH]c3ccccc3c1C)C(=O)N2 [IN-019, 4-Methyl-3-(3-methyl-1H-indol-2-ylmethylene)-1,3-dihydro-indol-2-one] | 10.7
NS(=O)(=O)c1ccc2c(c1)/C(=C/c1cc3ccccc3[nH]1)C(=O)N2 [IN-008, 3-(1H-Indol-2-ylmethylene)-2-oxo-2,3-dihydro-1H-indole-5-sulfonic acid amide] | 23
Cc1ccc2c(c1)/C(=C/c1[nH]c3ccccc3c1C)C(=O)N2 [IN-001, 5-Methyl-3-(3-methyl-1H-indol-2-ylmethylene)-1,3-dihydro-indol-2-one] | 10.7
Cc1c(/C=C2\C(=O)Nc3ccccc32)[nH]c2ccccc12 [IN-016, 3-(3-Methyl-1H-indol-2-ylmethylene)-1,3-dihydro-indol-2-one] | 26
Cc1c(/C=C2\C(=O)Nc3ccc(S(N)(=O)=O)cc32)[nH]c2ccccc12 [IN-002, 3-(3-Methyl-1H-indol-2-ylmethylene)-2-oxo-2,3-dihydro-1H-indole-5-sulfonic acid amide] | 8.7
O=C1Nc2cc(Cl)ccc2/C1=C/c1cc2ccccc2[nH]1 [IN-011, 6-Chloro-3-(1H-indol-2-ylmethylene)-1,3-dihydro-indol-2-one] | 6.1
Cc1c(/C=C2\C(=O)Nc3ccc(Cl)cc32)[nH]c2ccccc12 [IN-017, 5-Chloro-3-(3-methyl-1H-indol-2-ylmethylene)-1,3-dihydro-indol-2-one] | 20.4
Cc1c(/C=C2\C(=O)Nc3ccc(Br)cc32)[nH]c2ccccc12 [IN-018, 5-Bromo-3-(3-methyl-1H-indol-2-ylmethylene)-1,3-dihydro-indol-2-one] | 15.8
O=C1Nc2ccccc2/C1=C/c1cc2ccccc2[nH]1 [IN-012, 3-(1H-Indol-2-ylmethylene)-1,3-dihydro-indol-2-one] | 17.6
O=C1Nc2ccc(Cl)cc2/C1=C/c1cc2ccccc2[nH]1 [IN-013, 5-chloro-3-(1H-indol-2-ylmethylene)-1,3-dihydro-indol-2-one] | 17
